Test results taken from PMC12699179, “Investigating Metal and Fluorophore Controlled Intracellular Localization in Noble Metal Thiosemicarbazone Complexes” (Chemistry (Weinheim an Der Bergstrasse, Germany), 2025).
Read-outs that look alike come from different tables or passages of the source.

How the values were obtained:
[1] = Stability in cell culture medium by UV/Vis spectroscopy; format: physicochemical; conditions: 50 µM, DMEM with 10% fetal bovine serum, over 72 hours
Description: Likewise, the stability of these complexes was shown via UV/Vis spectrophotometry in cell culture medium over 72 hours.^[ [22] ^] The stability of the newly synthesized compounds was investigated similarly. […] However, the absorption profiles remained distinctly different from those of the corresponding free ligands, which was taken as evidence that the Pd(II) metal center remained chelated by the ligand.
(§1) Stability in Cell Culture Medium and Water
(§2) 5 mM stocks of the respective compounds in DMSO were diluted to produce a final concentration of 50 µM in water or Dulbecco's Modified Eagle's Medium (DMEM) containing 10% fetal bovine serum and 1% penicillin + streptomycin , respectively. The stability of the compounds was monitored via UV/Vis spectroscopy by recording the corresponding absorption profiles of the 50 µM solutions and comparing any changes to the profiles over […]

[2] = system: HeLa cells; test: MTT antiproliferative / cell viability assay; format: cell-based; conditions: for IC50: mean of three ± SD; for in vitro activity compared to its ligand: 72 hours
Description: We investigated the antiproliferative activities of compounds 4‒8 against HeLa cells using the standard 3‐(4,5‐dimethylthiazol‐2‐yl)‐2,5‐diphenyltetrazolium bromide (MTT) assay (Table 2). […]
8. Cell viability studies […]
media. All biological experiments were thus conducted using 5 mM stock solutions in DMSO that were diluted with culture medium to produce a final concentration of 0.5% DMSO for all experiments unless specified otherwise.
Cell viability experiments
HeLa cells were harvested, pelleted by centrifugation, and resuspended in cell culture medium. The MTT assays were carried out in 96 well plates at a starting density of 1500 cells per well in 100 µL of culture medium. The next day, a dilution series of 7 different concentrations was prepared for each evaluated compound. After 24 h of incubation, the cells were treated with 100 µL of culture medium containing the prepared conc entrations of the respective compounds to reach a final volume of 200 µL in each well. As a negative control, one series of cells was treated with the vehicle only (0.5% DMSO). […]
MTT dye (2.5 mg/mL). After a further incubation of 2 h, the medium was aspired off, and 200 µL DMSO was added to solubilize the precipitated formazan dye. The formazan absorption was measured on a BMG LABTECH CLARIOstar Plus plate reader at 550 nm, using a reference wavelength of 620 nm. Using the mean absorbance of each set of identically treated wells, a dose-response curve was produced and normalized to the wells containing untreated cells to allow for plate-to-plate comparison. The dose-response curves were then subjected to non-linear regression analysis performed in Microsoft Excel to determine IC50 values. Data is shown as the mean of three replicate experiments, and error bars represent the standard

[3] = system: HeLa cells; test: Live-cell confocal microscopy, colocalization with organelle trackers; format: cell-based; conditions: 10 µM, 24 hours, ± standard deviation
Description: The subcellular behavior of the compounds was then assessed using a confocal microscope following incubation with HeLa cells (10 µM) for 6 hours and 24 hours, respectively (Figures S56, S57, and 5, 6). Moreover, we performed colocalization experiments with appropriate commercial organelle tracking dyes. As controls, we used the methyl and ethyl esters of 1 and 2, 1‐OMe and 2‐OEt, respectively. […] Moreover, the Pearson Correlation Coefficients (PCC) between 6 and the commercial lysosome tracker (LysoTracker deep red) channel improved over time from 0.63 to 0.81. Additionally, the distribution was distinct from 2‐OEt, corroborating that the Dp44mT scaffold directed the localization of the conjugates. Therefore, attaching BODIPY had no discernible effect on the lysosomal accumulation of Dp44mT.
Figure S55: Excitation (Exc) and emission (Em) spectra of BODIPY conjugates 6 and 7 at 10 µM in water. For (A) 6 and (B) 7a compounds, λex = 502 nm and λem = 519 nm; Slitwidth: […]; Sensitivity: low and medium, respectively. For (C) 7b and (D) 7c, λex = 519 nm and λem = 519 nm; Slitwidth: […]; Sensitivity: medium […]
collected at the appropriate emission wavelengths. […] The corresponding Pearson's Correlation Coefficients (PCCs) were calculated using Fiji (version 1.54f).[7] […]

[4] = system: HeLa cells; test: Cellular uptake assay, metal content by ICP-MS; format: cell-based; conditions: 10 µM, 24 h, whole cell accumulation by ICP-MS
Description: Subsequently, we investigated the uptake of the conjugates 5 and 7 (at 10 µM) by incubating HeLa cells with the respective compounds for 24 hours and analyzing the final metal concentration inside the cells using inductively coupled plasma mass spectrometry (ICP‐MS). […]
HeLa cells were harvested and seeded in 100 mm × 21 mm cell culture dishes at a density of 200,000 cells per dish in 10 mL of growth medium. After 96 hours of incubation, when the cells had reached 90% confluency, the growth medium was aspirated and replaced with fresh medium containing 10 μM of a compound belonging to sets 5 or 7, respectively. The cells were incubated with the compound for 24 h, after which the medium was aspirated, and the cells were washed three times with 10 mL of PBS buffer. Subsequently, the washed cells were […]
trypsinized for 3 min, and the trypsin reaction was halted by the addition of 3 mL growth media.
Cells were suspended in the mixture, and the total cell count was determined using a Bio -Rad TC20 cell counter. The cell suspension was centrifuged at 5000 rpm for 5 minutes, and the supernatant was removed. The cells were then digested using 2 mL of aqua regia (3:1 v/v, 37% HCl and 70% HNO3, trace metal basis quality (Aldrich, purity ≥99.999%)) and sonicated at 60 °C for 16 h. The dissolved samples were then diluted with 13 mL of HPLC-grade water to reach a final volume of 15 mL. The total metal content of the samples was then determined via ICP-MS analysis (Thermo Scientific iCAP RQ, ASX-560) in Ar plasma in KED mode with He as collision gas. Reference to standards was made, and calibration curves were developed using commercial calibration standards (TraceCert®, Merck).
Fluorophore Compound Metal content
Table S3: Whole cell accumulation of compound sets 5 and 7 analyzed using ICP-MS and expressed in terms of total metal content. […]

[5] = Lipophilicity, n-octanol/PBS distribution (logD7.2); format: physicochemical; conditions: n-octanol/PBS distribution at pH 7.2; mean of three measurements ± SD
Excerpt: Having synthesized and assessed the stabilities of the complexes, we moved on to measure their lipophilicities at pH = 7.2 using the n‐octanol/PBS partition coefficient (Table 1).^[ [33], [34] ^] While the complexes were all highly lipophilic, the BODIPY‐conjugated complexes were more lipophilic than their coumarin analogs. In both sets of conjugates, the logD values followed the trend Pd(II) > Pt(II) > Au(III), with the monocationic Au(III) complexes being the least lipophilic.
7. Lipophilicity (logD7.2)
500 mL aliquots of purified octanol and PBS were thoroughly mixed in a 2 L separatory funnel and left overnight to saturate the two phases. For compound sets 5 and 7, 20 μM standard solutions were prepared in PBS-saturated octanol, respectively. 5 mL standard solutions containing the compound in question were then pipetted into 15 mL centrifuge tubes, and a 5 mL aliquot of the octanol-saturated PBS was added. The resulting samples were shaken for 10 min and allowed to rest overnight for 18 hours. The samples were then centrifuged for 30 min (3000 g, 20 °C), and aliquots of the octanol phase were analyzed via UV -Vis spectroscopy.
Experiments were conducted in triplicate. The concentrations of the compounds in the octanol phase were then quantified with respect to their λmax. […]
where A0 = absorbance of 20 μM compound in PBS-saturated octanol

[6] = Stability in water by UV/Vis spectroscopy; format: physicochemical; conditions: 50 µM, after 72 hours
Description: In the case of the Au(III) complexes, both the BODIPY conjugated complex 7a and the parent Dp44mT complex 8a ostensibly decomposed in cell culture medium, as their absorption profiles in media lacked the characteristic charge transfer band at λmax ∼440 nm observed in water. […] However, a slight shift in the λmax coupled with a decrease in absorbance was observed (Figure 4D).
as §1, §2

[7] = system: HeLa cells; design: method as in PMID 40488845; conditions: 24 hours incubation, highest tested concentration 15 µM; cited from earlier work
[8] = design: method as in PMID 40488845; conditions: 1H NMR, over 24 hours; cited from earlier work
[9] = design: method as in PMID 40488845; conditions: UV/Vis, over 72 hours; cited from earlier work
[10] = 24 hours incubation, read-out: IC50 24 hours
[11] = 72 hours incubation, read-out: IC50 72 hours
[12] = Homo sapiens, 24 hours incubation, read-out: IC50 24 hours
[13] = Homo sapiens, 72 hours incubation, read-out: IC50 72 hours

Compound	stability in cell culture medium [1]	IC50 [2, 10] [µM]	IC50 [2, 11] [µM]	Pearson Correlation Coefficient (PCC) with ER Tracker [3]	Metal content [4] [pg/cell]	logD 7.2 [5]	stability in water [6]	IC50 [2, 12] [µM]	IC50 [2, 13] [µM]	in vitro activity compared to its ligand [2]	effect on cell viability after 24 hours [7]	stability in DMSO-d6 [8]	stability in cell culture medium [9]
CN(C)C(=S)NN=C(c1ccccn1)c1ccccn1 [Dp44mT, di‐2‐pyridylketone‐4,4‐dimethyl‐3‐thiosemicarbazone, reference compound]	–	–	–	–	–	–	–	> 15	0.009 ± 0.0003	–	did not affect cell viability	–	–
CN(C)C1=N[N+]2=C(c3cccc(CCNC(=O)CCCNC(=O)c4cc5cc6c7c(c5oc4=O)CCCN7CCC6)n3)c3cccc[n+]3[Pt-2]2([Cl])[S]1 (stereo not shown) [Compound 5b]	–	> 15	58.2 ± 4.3	–	0.016 ± 0.005	1.47 ± 0.03	–	–	–	–	did not affect cell viability	stable	stable
CN(C)C1=N[N+]2=C(c3cccc(CCNC(=O)CCCNC(=O)c4cc5cc6c7c(c5oc4=O)CCCN7CCC6)n3)c3cccc[n+]3[Au-]2([Cl])[S]1.F[P-](F)(F)(F)(F)F (stereo not shown) [Compound 5a]	similarly decomposed	> 15	3.1 ± 0.3	–	0.032 ± 0.016	0.99 ± 0.02	–	–	–	fourfold lower activity	–	–	–
CN(C)C(=S)NN=C(c1ccccn1)c1cccc(CCNC(=O)CCCNC(=O)c2cc3cc4c5c(c3oc2=O)CCCN5CCC4)n1 [Compound 4]	–	–	–	–	–	–	–	> 15	0.8 ± 0.1	–	did not affect cell viability	stable	–
CC1=CC(C)=[N+]2C1=Cc1ccc(CCC(=O)NCCc3cccc(C(=NNC(=S)N(C)C)c4ccccn4)n3)n1[B-]2(F)F [Compound 6]	–	–	–	–	–	–	–	> 15	0.8 ± 0.1	–	–	–	–

The next lines start with results.

stability in cell culture medium [1]	IC50 [2, 10] [µM]	IC50 [2, 11] [µM]	Pearson Correlation Coefficient (PCC) with ER Tracker [3]	Metal content [4] [pg/cell]	logD 7.2 [5]	stability in water [6]	IC50 [2, 12] [µM]	IC50 [2, 13] [µM]	Compound	in vitro activity compared to its ligand [2]	effect on cell viability after 24 hours [7]	stability in DMSO-d6 [8]	stability in cell culture medium [9]
remained stable	> 15	4.3 ± 0.3	0.51 ± 0.01	0.013 ± 0.002	1.80 ± 0.04	–	–	–	CC1=CC(C)=[N+]2C1=Cc1ccc(CCC(=O)NCCc3cccc(C4=[N+]5N=C(N(C)C)[S][Pt-2]5([Cl])[n+]5ccccc54)n3)n1[B-]2(F)F (stereo not shown) [Compound 7b]	–	–	–	–
decomposed	> 15	0.6 ± 0.1	–	0.035 ± 0.007	1.53 ± 0.07	only mild degradation	–	–	CC1=CC(C)=[N+]2C1=Cc1ccc(CCC(=O)NCCc3cccc(C4=[N+]5N=C(N(C)C)[S][Au-]5([Cl])[n+]5ccccc54)n3)n1[B-]2(F)F.F[P-](F)(F)(F)(F)F (stereo not shown) [Compound 7a]	comparable to their respective ligands	–	–	–
decomposed	> 15	0.009 ± 0.0005	–	–	–	only mild degradation	–	–	CN(C)C1=N[N+]2=C(c3ccccn3)c3cccc[n+]3[Au-]2([Cl])[S]1.[Cl][Au-][Cl] (stereo not shown) [Compound 8a]	comparable to their respective ligands	–	–	–
